Assay results from patent US10556008B2, “Methods of treatment of keloid using an anti-VEGF agent” (priority 2012, dated 2020).
Entries after “also recorded” stand apart in the source; their conditions may differ.

What was measured:
[1] = commercially available topical steroids (skin); cited from earlier work
pterygium recurrence = test: Treatment of pterygium recurrence after pterygiectomy with bevacizumab, with or without combination therapy (Patients 1-5); assay type: in vivo, human; conditions: for Time without recurrence of pterygium: steroid and NSAID; for No pterygium regrowth observed as of (time after surgery): after third surgical removal and conjunctival grafting; for No pterygium regrowth observed as of (time after surgery) / No regrowth of pterygium observed as of (time after surgery): bevacizumab injections, NSAID eye drops; for No regrowth of pterygium observed as of (time after surgery): steroid eye drops
Excerpt: A topical anesthetic (proparacaine 0.5% eye drops or Alcaine manufactured by Alcon Laboratories Inc.) was applied to the eye following recent pterygiectomy (from ˜5 days to 2 months following surgery). The patients were examined to identify vascular growth on eye conjunctiva. […] If blood was present (indicating presence of blood vessel), the syringe needle was withdrawn. […] If bleeding occurred (e.g., in the form of subconjunctival or subcutaneous hematoma), tamponade with Q-Tips® was performed until bleeding stopped; then injection was resumed.
Anti-inflammatory steroid drops (prednisolone acetate 1% (Allergan)) were given for 6 weeks with frequency range from once a day to 4 times a day (every 6 hours) to every hour (24 drops/day). NSAID eye drops (Diclofenac 0.1% (Bausch and Lomb)) drops (1 mg/mL to 100 mg/mL) were given multiple times, 4 times a day every 6 hours for 3 to 6 months.
Patients were followed up to monitor for appearance of new blood vessel growth in the eye.
Five patients (Patients 1-5) underwent surgery to remove primary pterygium (pterygiectomy) from the cornea of one or both eyes followed by conjunctival grafting were treated as described below.

recurrent pterygium = conditions: bevacizumab not as part of the combination therapy; temporarily = e.g. 6 months or less; cited from earlier work

Row | Compound | Potency [1] | Time without recurrence of pterygium (pterygium recurrence; FIG. 2 (Patient 2), combination therapy of bevacizumab) [months] | Time without recurrence of pterygium (pterygium recurrence; FIG. 4 (Patient 4), combination therapy of bevacizumab) [months] | Time without recurrence of pterygium (pterygium recurrence; FIG. 5 (Patient 5), combination therapy of bevacizumab) [months] | Time without recurrence of pterygium (pterygium recurrence; FIGS. 3A, 3B (Patient 3), combination therapy of bevacizumab) [months] | Pterygium Recurrence (pterygium recurrence; Patient 1, Right eye, bevacizumab + steroid (injected and/or eye drops) + topical NSAID eye drops) | No pterygium regrowth observed as of (time after surgery) (pterygium recurrence; Patient 1 right eye, bevacizumab+Kenalog injection) | Pterygium Recurrence (pterygium recurrence; Patient 2, Left eye, bevacizumab + steroid (injected and/or eye drops) + topical NSAID eye drops) | No pterygium regrowth observed as of (time after surgery) (pterygium recurrence; Patient 2 left eye, bevacizumab and Kenalog injections) | Pterygium recurrence after bevacizumab injection alone (pterygium recurrence; Patient 2 left eye, single bevacizumab injection on Day 17 after second surgical removal, no steroid or NSAID) | Pterygium Recurrence (pterygium recurrence; Patient 3 (number not printed in row), Left Eye, bevacizumab + steroid (Kenalog injection), no NSAID) | Pterygium Recurrence (pterygium recurrence; Patient 3 (number not printed in row), Right Eye, bevacizumab + steroid + topical NSAID eye drops) | No regrowth of pterygium observed as of (time after surgery) (pterygium recurrence; Patient 3 right eye, after surgical removal and amniotic membrane grafting) | Pterygium Recurrence (pterygium recurrence; Patient 4, Right Eye, bevacizumab + steroid + topical NSAID eye drops) | No regrowth of pterygium observed as of (time after surgery) (pterygium recurrence; Patient 4 right eye, after first surgical procedure, bevacizumab and Kenalog injections) | Pterygium Recurrence (pterygium recurrence; Patient 5, Right Eye, bevacizumab + steroid + topical NSAID eye drops) | Pterygium regrowth (overall conclusion) (pterygium recurrence; combination therapy of bevacizumab, anti-inflammatory steroid (injected or topical) and topical NSAID, Patients 1-5) | Combination therapy compared with bevacizumab alone (pterygium recurrence; combination therapy of bevacizumab, anti-inflammatory steroid and topical NSAID vs bevacizumab alone) | Effect on recurrent pterygium reported in the literature (recurrent pterygium)
1 | CC(=O)OCC(=O)[C@@]12OC3(CCCC3)O[C@@H]1C[C@H]1[C@@H]3CCC4=CC(=O)C=C[C@]4(C)[C@@]3(F)[C@@H](O)C[C@@]12C [Amcinonide] | High | – | – | – | – | – | – | – | – | – | – | – | – | – | – | – | – | – | –
2 | CCCCC(=O)O[C@]1(C(=O)CO)[C@@H](C)C[C@H]2[C@@H]3CCC4=CC(=O)C=C[C@]4(C)[C@@]3(F)[C@@H](O)C[C@@]21C [Betamethasone valerate] | Medium-Low | – | – | – | – | – | – | – | – | – | – | – | – | – | – | – | – | – | –
3 | Bevacizumab: 149-Kd full length humanized anti-vascular endothelial growth factor (anti-VEGF) antibody | – | > 8 | > 9 | > 3 | > 6 | No | about 520 days | No | about 240 days | further recurrence of the pterygium | completely regrew and Yes | No | about 130 days | No | about 250 days | No | inhibited | superior | not effective or only temporarily effective; also recorded: temporary treatment
